The values that follow come from US8084461B2 (Dey, L.P., priority 2001, dated 2011).

Data set [1] has as its system patients with COPD. Description: Double-blind, randomized, positive control trial: FEV1 response (efficacy). The conditions noted are these: Crossover phase, nebulized 4 times per day. The data set is classed as in vivo, human. As to the method:
(§1) To evaluate the efficacy and safety of the inhalation solution of the present invention, a double-blind, randomized, positive control trial was performed.
(§2) All study medications were administered 4 times per day (ideally every 6 hours) by inhalation using a PARI LC PLUS™ nebulizer and PARI PRONEB® compressor. Concomitant use of bronchodilators was restricted during the trial. Oral and inhaled steroic use was permitted throughout the trial, provided that dosing remained constant.

The subject of data set [2] is patients with COPD. As to the kind of experiment: Double-blind, randomized, positive control trial: treatment-emergent adverse events (safety/tolerability). The settings on record: percent of patients; for (%) Patients with A (adverse events): any adverse event. How it is done: as §1, §2

Where a name gives a salt, the structure may show the parent alone.

`CC(C)(C)NCC(O)c1ccc(O)c(CO)c1` (stereo not drawn) [Albuterol, α^1-[(tert-butylamino)methyl]-4-hydroxy-m-xylene-α,α′-diol sulfate (2:1)(salt)]: the “Peak FEV1 mean (change from pre-dose to peak FEV1 within 3 hours after dosing)” value in the data set on patients with COPD [1] (Combination vs. Albuterol comparison) turned out to be 0.313 L. Besides, in the data set with patients with COPD [2], the “Bronchitis (RESPIRATORY), %” value is “(1.4) %”; the “Cramps leg (MUSCULO-SKELETAL), %” value is reported as “(1.1) %”; the “Diarrhea (DIGESTIVE), %” value is reported as “(0.7) %”; the “Dyspepsia (DIGESTIVE), %” value is listed as “(0.9) %”. In the data set with patients with COPD [2], the “Infection urinary tract (UROGENITAL), %” value is given as “(0.4) %”; the “Lung Disease (RESPIRATORY), %” value is “(4.7) %”; the “Nausea (DIGESTIVE), %” value is listed as “(0.9) %”; the “Pain (BODY AS A WHOLE), %” value was “(1.1) %”. In the data set on patients with COPD [2], the “Pain chest (BODY AS A WHOLE), %” value was “(1.4) %”; the “Pharyngitis (RESPIRATORY), %” value was “(3.5) %”; the “Pneumonia (RESPIRATORY), %” value is “(0.9) %”; the “(%) Patients with A (adverse events)” value is “(43.0) %”.

As to `CC(C)[N+]1(C)C2CCC1CC(OC(=O)C(CO)c1ccccc1)C2` (racemic) [Ipratropium, 8-azoniabicyclo [3.2.1]-octane, 3-(3, hydroxyl-1-oxo-2-phenylpropoxy)-8methyl-8-(1-methylethyl)-bromide, monohydrate, (endo, syn)-, (±)-], the “Peak FEV1 mean (change from pre-dose to peak FEV1 within 3 hours after dosing)” value in the data set with patients with COPD [1] (Combination vs. Ipratropium comparison) came to 0.282 L. Also, in the data set on patients with COPD [2], the “Bronchitis (RESPIRATORY), %” value is on record as “(1.7) %”; the “Cramps leg (MUSCULO-SKELETAL), %” value is “(0.8) %”; the “Diarrhea (DIGESTIVE), %” value is on record as “(1.2) %”; the “Dyspepsia (DIGESTIVE), %” value is given as “(1.1) %”. In the data set on patients with COPD [2], the “Infection urinary tract (UROGENITAL), %” value is “(1.2) %”; the “Lung Disease (RESPIRATORY), %” value is recorded as “(4.5) %”; the “Nausea (DIGESTIVE), %” value is “(0.8) %”; the “Pain (BODY AS A WHOLE), %” value is recorded as “(0.5) %”. For the same molecule, in the data set with patients with COPD [2], the “Pain chest (BODY AS A WHOLE), %” value is reported as “(1.9) %”; the “Pharyngitis (RESPIRATORY), %” value is on record as “(3.6) %”; the “Pneumonia (RESPIRATORY), %” value is “(1.1) %”; the “(%) Patients with A (adverse events)” value is “(43.6) %”.
